≈ marks a conversion by molar mass, not a printed value. Where two headings read alike, the source gives them in different places.
What was measured:
[1] = system: Plasmodium falciparum W-2; assay: In vitro antimalarial activity, semiautomated microdilution (hypoxanthine incorporation), W-2 clone; format: cell-based; settings: for IC50: Plasmodium falciparum, read-out: In Vitro Antimalarial Activity IC50, W-2
Protocol: (§1) The intrinsic antimalarial activities of deoxoartemisinin and various control drugs were quantitatively assessed by using modifications of the semiautomated microdilution method of Desjardins. Deoxoartemisinin was dissolved in DMSO and subsequently diluted in culture medium with 10% plasma. Equimolar starting concentrations were predetermined to generate well-defined concentration curves over a 64-fold range of dilutions. Microtiter plates prepared with serial dilutions of drug and parasite suspensions (at 0.5% parasitemia and 1.5% hematocrit) were incubated at 37° C. in an air-tight plexiglass box, which was flushed with 5% oxygen, 5% carbon dioxide, and 90% nitrogen. After 24 hours of incubation, cultures were labeled with tritiated hypoxanthine and incubated for an additional 18-20 hours prior to harvesting particulate matter on fiber glass strips. Hypoxanthine incorporation in each well was determined by scintillation spectrophotometry and served as an index of specific parasite growth rates. Computer-generated concentration-response curves were analyzed by non-linear regression, and 50% inhibitory concentrations were calculated for each drug. The antimalarial tests were conducted using cultures obtained from the Malaria Laboratory, Division of Experimental Therapeutics, WRAIR/WRAMC, Washington, D.C. The W-2 culture utilized in the testing of Example II was of Indochina origin, chloroquine-resistant and mefloquine-sensitive. The other culture D-6, used in the testing of Example II and reported in Table I, is of Sierra Leone origin, chloroquine-sensitive and mefloquine-resistant.
(§2) Set out in Table I are the comparative results obtained from in vitro testing the activity of the inventive compound, known antimalarial compounds, artemisinin, and another derivative of artemisinin.

[2] = system: Plasmodium falciparum D-6; assay: In vitro antimalarial activity, semiautomated microdilution (hypoxanthine incorporation), D-6 clone; format: cell-based; settings: for IC50: Plasmodium falciparum, read-out: In Vitro Antimalarial Activity IC50, D-6
Protocol: as §1, §2

[3] = in vivo; cited from earlier work
[4] = background statement; cited from earlier work
[5] = Solubility and lipophilicity
Plasmodium falciparum = assay: Antimalarial screening tests in vitro; format: cell-based; settings: nonperoxy compounds
Protocol: as §1, with “The W-2 culture utilized in the testing of Example II was of Indochina origin, chloroquine-resistant and mefloquine-sensitive. The other culture D-6, used in the testing of Example II and reported in Table I, is of Sierra Leone origin, chloroquine-sensitive and mefloquine-resistant.” left out

[6] = W-2 clone, Indochina origin, chloroquine-resistant and mefloquine-sensitive
[7] = D-6 clone, Sierra Leone origin, chloroquine-sensitive and mefloquine-resistant

Structure (SMILES)	IC50 [1, 6] [ng/mL]	IC50 [2, 7] [ng/mL]	IC50 [1] [ng/mL]	IC50 [2] [ng/mL]	also measured
C[C@@H]1CC[C@H]2[C@@H](C)C(=O)O[C@@H]3O[C@@]4(C)CC[C@@H]1[C@]32OO4 [Artemisinin, artemisinin]	1.21 (≈ 0.00429 µM)	2.33 (≈ 0.00825 µM)	–	–	side effects [3]: No side effects; solubility in water or oils [4]: only sparingly soluble in either water or oils
CCN(CC)CCCC(C)Nc1ccnc2cc(Cl)ccc12 (centres unmarked) [Chloroquine]	–	–	55.7 (≈ 0.174 µM)	2.69 (≈ 0.00841 µM)	–
CC1CCC2C(C)COC3OC4(C)CCC1C32OO4 (centres unmarked) [Deoxoartemisinin, deoxoartemisinin]	0.15 (≈ 0.000559 µM)	0.58 (≈ 0.00216 µM)	–	–	antimalarial activity in vitro as compared to artemisinin, chloroquine-resistant malaria ([1]; against chloroquine-resistant malaria, relative to artemisinin): four; antimalarial activity in vitro as compared to artemisinin, chloroquine-sensitive malaria ([2]; against chloroquine-sensitive malaria, relative to artemisinin): approximately eight; solubility in organic solvents [5]: soluble in chloroform, diethylether, acetonitrile, cyclohexane and hexane
C=C[C@H]1C[N@@]2CC[C@H]1C[C@H]2[C@H](O)c1ccnc2ccc(OC)cc12 [Quinine]	–	–	59.7 (≈ 0.184 µM)	10.8 (≈ 0.0333 µM)	–
CN(C)[C@@H]1C(=O)C(C(N)=O)=C(O)[C@@]2(O)C(=O)C3=C(O)c4c(O)cccc4[C@@](C)(O)[C@H]3C[C@@H]12 [Tetracycline]	–	–	10200 (≈ 23 µM)	7230 (≈ 16.3 µM)	–

Further lines, with some results ahead:

IC50 [1, 6] [ng/mL]	IC50 [2, 7] [ng/mL]	Structure (SMILES)	IC50 [1] [ng/mL]	IC50 [2] [ng/mL]	also measured
–	762 (≈ 2.86 µM)	C[C@@H]1CC[C@H]2[C@@H](C)C(=O)O[C@@H]3O[C@@]4(C)CC[C@@H]1[C@]32O4 [Deoxyartemisinin, deoxyartemisinin]	–	–	activity in the antimalarial screening tests (Plasmodium falciparum): failed to exhibit activity
0.74 (≈ 0.00196 µM)	7.3 (≈ 0.0193 µM)	OC(c1cc(C(F)(F)F)nc2c(C(F)(F)F)cccc12)C1CCCCN1 (centres unmarked) [Mefloquine]	–	–	–
39.3 (≈ 0.158 µM)	0.05 (≈ 0.000201 µM)	CCc1nc(N)nc(N)c1-c1ccc(Cl)cc1 [Pyrimethamine]	–	–	–
14300 (≈ 46.2 µM)	16.4 (≈ 0.0527 µM)	COc1ncnc(NS(=O)(=O)c2ccc(N)cc2)c1OC [Sulfadoxine]	–	–	–
